Experimental data as given in article PMC7349888, “Synthesis and Evaluation of Dodecaboranethiol Containing Kojic Acid (KA-BSH) as a Novel Agent for Boron Neutron Capture Therapy” (Cells, 2020).
Several values for one entry are separate records, joined by “and”; a condition that tells them apart may be missing. Identical values can stand only once.

What was measured:
F98 glioma bearing rats = assay: Biodistribution in F98 glioma bearing rats (ICP-AES); format: in vivo, rat; settings: iv
Excerpt: All animal experimental procedures were approved by the Animal Use Review Board and Ethical Committee of Osaka Medical College (No. 25092, 28 October 2015) and Kyoto University Research Reactor Institute (KURRI, No. 25030-13, 1 April 2015), and performed following the Guide for the Care and Use of Laboratory Animals. Eight-week-old, male Fischer 344 rats weighing between 200 and 250 g were used (Japan SLC, Inc. Shizuoka, Japan). Rats were anesthetized with an intraperitoneal (ip) injection of a mixture of medetomidine 0.15 mg, midazolam 2 mg, and butorphanol 2.5 mg/kg body weight (bw). The head of each rat was fixed with a stereotactic frame (Model 900; David Kopf Instruments, Tujunga, CA, USA). The scalp was incised at the midline and a small burr hole was drilled into the skull (1 mm posterior and 4 mm right-lateral to the bregma), using an electric drill. And then, F98 glioma cells were injected into the brain using a 25 µL Hamilton microsyringe with a 26-gauge needle (model 1700 RN, Hamilton Bonaduz AG, Bonaduz, Switzerland). The needle was inserted at a 5 mm depth from the skull and F98 cells were diluted in 10 µL of DMEM containing low-gelling temperature agarose at a concentration of either 10^3 for therapeutic experiments or 10^5 cells for biodistribution experiments. They were injected over 30 s using an automatic infuser pump. The needle entry hole was immediately sealed with bone wax and the incised scalp was closed with 3-0 silk sutures (Ethicon, North Ryde, NSW). After surgery, all animals were given atipamezole hydrochloride (0.15 mg/kg bw, ip).
Biodistribution studies were performed in Fischer rats bearing intracerebral implants of F98 rat glioma cells. 10–13 days after tumor implantation of 10^5 F98 glioma cells, when signs of a progressively growing tumor were evident (weight loss, lethargy, hunching, and ataxia), biodistribution studies were initiated at which time the animals had tumors weighing 90–180 mg. […] To compare its biodistribution with that of BPA or BSH, another group of rats received an iv injection of BPA at a concentration of 10 mg ^10B/kg bw or BSH at a concentration of 30 mg ^10B/kg bw. Biodistribution was determined 1 and 3 h after termination of iv injection. Animals were euthanized by an overdose of sevoflurane following which tumors and normal tissues, consisting of ipsilateral brain, contralateral brain, blood, heart, lung, liver, spleen, kidney, skin, and muscle, were removed and weighed for ^10B determination by ICP-AES.

F98 rat glioma cells = assay: In vitro 10B uptake in F98 cells (ICP-AES); format: cell-based; settings: 24 h incubation in DMEM with 1 mM boron compound
Description: (§1) For the in vitro ^10B uptake study, B16 mouse melanoma cells, C6 rat glioma cells, and F98 rat glioma cells were used. B16 and C6 cells were used for in vitro testing at Osaka Prefecture University. Based on results from initial in vitro screening, the in vitro ^10B uptake study using F98 glioma cells were performed at Osaka Medical College. Four hundred thousand cells were seeded in a tissue culture dish (100 × 20 mm; Becton Dickinson, Franklin Lakes, NJ, USA) with DMEM supplemented with 10% FBS and 10% penicillin and streptomycin at 37 °C in a 5% CO2 atmosphere. After incubation for 4 days at 37 °C, the medium was removed, and DMEM with 10% FBS containing 1 mM KA-BSH, BSH, or BPA was added to each dish. The cells were incubated for an additional 24 h at 37 °C. The medium was then removed, and the cells were washed twice with 4 °C phosphate-buffered saline (PBS) and detached with trypsin–ethylenediamine tetraacetic acid solution. PBS was then added, and cells were digested overnight with 1 N nitric acid solution (Wako Pure Chemical Industries, Osaka, Japan), and ^10B uptake was determined by inductively coupled plasma atomic emission spectrometry (ICP-AES) using an iCAP6000 emission spectrometer (Hitachi High-Technologies, Tokyo, Japan).

C6 rat glioma cells = assay: In vitro boron uptake in C6 cells; format: cell-based; settings: Figure S1
Description: as §1

B16 mouse melanoma cells = assay: In vitro boron uptake in B16 cells; format: cell-based; settings: Figure S1
Description: as §1

With “S-(2-(5-hydroxy-4-oxo-4H-pyran-2-yl) methyl) Thioundecahydro-Closo- Dodecaborate (2-) Disodium Salt [KA-BSH]” the “10B concentration, Blood” value (F98 glioma bearing rats; 10 mg 10B/kg, 1 h) was 4.71 µg 10B/g, the “10B concentration, Contralateral brain” value (F98 glioma bearing rats; 10 mg 10B/kg, 1 h) was 0.24 µg 10B/g and the “10B concentration, Heart” value (F98 glioma bearing rats; 10 mg 10B/kg, 1 h) was 1.18 µg 10B/g. For the same substance, the “10B concentration, Ipsilateral brain” value (F98 glioma bearing rats; 10 mg 10B/kg, 1 h) was 0.29 µg 10B/g, the “10B concentration, Liver” value (F98 glioma bearing rats; 10 mg 10B/kg, 1 h) was 5.15 µg 10B/g and the “10B concentration, Lung” value (F98 glioma bearing rats; 10 mg 10B/kg, 1 h) was 4.31 µg 10B/g. The “10B concentration, Muscle” value (F98 glioma bearing rats; 10 mg 10B/kg, 1 h) was 0.63 µg 10B/g, the “10B concentration, Skin” value (F98 glioma bearing rats; 10 mg 10B/kg, 1 h) was 1.79 µg 10B/g and the “10B concentration, Spleen” value (F98 glioma bearing rats; 10 mg 10B/kg, 1 h) was 14.34 µg 10B/g. For the same substance, the “10B concentration, Tumor” value (F98 glioma bearing rats; 10 mg 10B/kg, 1 h) was 1.42 µg 10B/g and 1.42 ± 0.28 µg 10B/g, the “T/Bl (tumor to blood ratio)” value (F98 glioma bearing rats; 10 mg 10B/kg, 1 h) was 0.31 and the “T/Br (tumor to normal contralateral brain ratio)” value (F98 glioma bearing rats; 10 mg 10B/kg, 1 h) was 5.99. The “10B concentration, Blood” value (F98 glioma bearing rats; 10 mg 10B/kg, 3 h) was 1.26 µg 10B/g, the “10B concentration, Contralateral brain” value (F98 glioma bearing rats; 10 mg 10B/kg, 3 h) was 0.09 µg 10B/g and the “10B concentration, Heart” value (F98 glioma bearing rats; 10 mg 10B/kg, 3 h) was 0.29 µg 10B/g. For the same substance, the “10B concentration, Ipsilateral brain” value (F98 glioma bearing rats; 10 mg 10B/kg, 3 h) was 0.10 µg 10B/g, the “10B concentration, Liver” value (F98 glioma bearing rats; 10 mg 10B/kg, 3 h) was 4.13 µg 10B/g and the “10B concentration, Lung” value (F98 glioma bearing rats; 10 mg 10B/kg, 3 h) was 0.74 µg 10B/g. For the same substance, the “10B concentration, Muscle” value (F98 glioma bearing rats; 10 mg 10B/kg, 3 h) was 0.19 µg 10B/g, the “10B concentration, Skin” value (F98 glioma bearing rats; 10 mg 10B/kg, 3 h) was 0.45 µg 10B/g and the “10B concentration, Spleen” value (F98 glioma bearing rats; 10 mg 10B/kg, 3 h) was 16.07 µg 10B/g. The “10B concentration, Tumor” value (F98 glioma bearing rats; 10 mg 10B/kg, 3 h) was 0.85 µg 10B/g, the “T/Bl (tumor to blood ratio)” value (F98 glioma bearing rats; 10 mg 10B/kg, 3 h) was 0.69 and the “T/Br (tumor to normal contralateral brain ratio)” value (F98 glioma bearing rats; 10 mg 10B/kg, 3 h) was 9.52. The “10B concentration, Blood” value (F98 glioma bearing rats; 20 mg 10B/kg, 1 h) was 8.76 µg 10B/g, the “10B concentration, Contralateral brain” value (F98 glioma bearing rats; 20 mg 10B/kg, 1 h) was 0.24 µg 10B/g and the “10B concentration, Heart” value (F98 glioma bearing rats; 20 mg 10B/kg, 1 h) was 2.10 µg 10B/g. The “10B concentration, Ipsilateral brain” value (F98 glioma bearing rats; 20 mg 10B/kg, 1 h) was 0.31 µg 10B/g, the “10B concentration, Liver” value (F98 glioma bearing rats; 20 mg 10B/kg, 1 h) was 10.25 µg 10B/g and the “10B concentration, Lung” value (F98 glioma bearing rats; 20 mg 10B/kg, 1 h) was 6.11 µg 10B/g. The “10B concentration, Muscle” value (F98 glioma bearing rats; 20 mg 10B/kg, 1 h) was 2.35 µg 10B/g, the “10B concentration, Skin” value (F98 glioma bearing rats; 20 mg 10B/kg, 1 h) was 3.56 µg 10B/g and the “10B concentration, Spleen” value (F98 glioma bearing rats; 20 mg 10B/kg, 1 h) was 10.30 µg 10B/g. The “10B concentration, Tumor” value (F98 glioma bearing rats; 20 mg 10B/kg, 1 h) was 2.96 µg 10B/g, the “T/Bl (tumor to blood ratio)” value (F98 glioma bearing rats; 20 mg 10B/kg, 1 h) was 0.34 and the “T/Br (tumor to normal contralateral brain ratio)” value (F98 glioma bearing rats; 20 mg 10B/kg, 1 h) was 13.21. For the same substance, the “10B concentration, Blood” value (F98 glioma bearing rats; 20 mg 10B/kg, 3 h) was 1.54 µg 10B/g, the “10B concentration, Contralateral brain” value (F98 glioma bearing rats; 20 mg 10B/kg, 3 h) was 0.09 µg 10B/g and the “10B concentration, Heart” value (F98 glioma bearing rats; 20 mg 10B/kg, 3 h) was 0.39 µg 10B/g. The “10B concentration, Ipsilateral brain” value (F98 glioma bearing rats; 20 mg 10B/kg, 3 h) was 0.14 µg 10B/g, the “10B concentration, Liver” value (F98 glioma bearing rats; 20 mg 10B/kg, 3 h) was 5.40 µg 10B/g and the “10B concentration, Lung” value (F98 glioma bearing rats; 20 mg 10B/kg, 3 h) was 1.37 µg 10B/g. For the same substance, the “10B concentration, Muscle” value (F98 glioma bearing rats; 20 mg 10B/kg, 3 h) was 0.24 µg 10B/g, the “10B concentration, Skin” value (F98 glioma bearing rats; 20 mg 10B/kg, 3 h) was 0.57 µg 10B/g and the “10B concentration, Spleen” value (F98 glioma bearing rats; 20 mg 10B/kg, 3 h) was 8.44 µg 10B/g. For the same substance, the “10B concentration, Tumor” value (F98 glioma bearing rats; 20 mg 10B/kg, 3 h) was 1.47 µg 10B/g, the “T/Bl (tumor to blood ratio)” value (F98 glioma bearing rats; 20 mg 10B/kg, 3 h) was 1.12 and the “T/Br (tumor to normal contralateral brain ratio)” value (F98 glioma bearing rats; 20 mg 10B/kg, 3 h) was 21.07. The “10B concentration in blood” value (F98 glioma bearing rats; 30 mg 10B/kg, 1 h) was 14.21 ± 3.17 µg/mL, the “10B concentration, Blood” value (F98 glioma bearing rats; 30 mg 10B/kg, 1 h) was 14.21 µg 10B/g and the “10B concentration, Contralateral brain” value (F98 glioma bearing rats; 30 mg 10B/kg, 1 h) was 0.45 µg 10B/g. For the same substance, the “10B concentration, Heart” value (F98 glioma bearing rats; 30 mg 10B/kg, 1 h) was 3.45 µg 10B/g, the “10B concentration, Ipsilateral brain” value (F98 glioma bearing rats; 30 mg 10B/kg, 1 h) was 0.63 µg 10B/g and the “10B concentration, Liver” value (F98 glioma bearing rats; 30 mg 10B/kg, 1 h) was 10.33 ± 2.61 µg 10B/g and 10.33 µg 10B/g. For the same substance, the “10B concentration, Lung” value (F98 glioma bearing rats; 30 mg 10B/kg, 1 h) was 9.27 µg 10B/g, the “10B concentration, Muscle” value (F98 glioma bearing rats; 30 mg 10B/kg, 1 h) was 2.26 µg 10B/g and the “10B concentration, Skin” value (F98 glioma bearing rats; 30 mg 10B/kg, 1 h) was 7.25 µg 10B/g. The “10B concentration, Spleen” value (F98 glioma bearing rats; 30 mg 10B/kg, 1 h) was 3.77 µg 10B/g, the “10B concentration, Tumor” value (F98 glioma bearing rats; 30 mg 10B/kg, 1 h) was 6.65 µg 10B/g and 6.65 ± 0.25 µg 10B/g and the “T/Bl (tumor to blood ratio)” value (F98 glioma bearing rats; 30 mg 10B/kg, 1 h) was 0.49. For the same substance, the “T/Br (tumor to normal contralateral brain ratio)” value (F98 glioma bearing rats; 30 mg 10B/kg, 1 h) was 15.27, the “10B concentration in blood” value (F98 glioma bearing rats; 30 mg 10B/kg, 3 h) was 2.35 ± 1.37 µg/mL and the “10B concentration, Blood” value (F98 glioma bearing rats; 30 mg 10B/kg, 3 h) was 2.35 µg 10B/g. The “10B concentration, Contralateral brain” value (F98 glioma bearing rats; 30 mg 10B/kg, 3 h) was 0.14 µg 10B/g, the “10B concentration, Heart” value (F98 glioma bearing rats; 30 mg 10B/kg, 3 h) was 0.56 µg 10B/g and the “10B concentration, Ipsilateral brain” value (F98 glioma bearing rats; 30 mg 10B/kg, 3 h) was 0.35 µg 10B/g. The “10B concentration, Liver” value (F98 glioma bearing rats; 30 mg 10B/kg, 3 h) was 4.19 ± 1.79 µg 10B/g and 4.19 µg 10B/g, the “10B concentration, Lung” value (F98 glioma bearing rats; 30 mg 10B/kg, 3 h) was 2.26 µg 10B/g and the “10B concentration, Muscle” value (F98 glioma bearing rats; 30 mg 10B/kg, 3 h) was 0.32 µg 10B/g. The “10B concentration, Skin” value (F98 glioma bearing rats; 30 mg 10B/kg, 3 h) was 1.06 µg 10B/g, the “10B concentration, Spleen” value (F98 glioma bearing rats; 30 mg 10B/kg, 3 h) was 5.68 µg 10B/g and the “10B concentration, Tumor” value (F98 glioma bearing rats; 30 mg 10B/kg, 3 h) was 2.91 µg 10B/g. For the same substance, the “T/Bl (tumor to blood ratio)” value (F98 glioma bearing rats; 30 mg 10B/kg, 3 h) was 1.58, the “T/Br (tumor to normal contralateral brain ratio)” value (F98 glioma bearing rats; 30 mg 10B/kg, 3 h) was 23.09 and the “clearance from normal tissues” value (F98 glioma bearing rats; 1 vs 3 h) was “rapid clearance from normal tissues”. The “10B Concentrations, Brain (Table 1)” value (F98 glioma bearing rats; 1 h, used for dose estimation) was 0.3 μg 10B/g, the “10B Concentrations, Tumor (Table 1)” value (F98 glioma bearing rats; 1 h, used for dose estimation) was 1.4 μg 10B/g and the “10B concentration of F98 rat glioma cells” value (F98 rat glioma cells) was 0.821 ± 0.047 µg 10B/10^7 cells. The “boron uptake into cancer cells” value (C6 rat glioma cells) was “taken up into cancer cells” and the “boron uptake into cancer cells” value (B16 mouse melanoma cells) was “taken up into cancer cells”.
